Test results published in patent US7514571B2, “Bicyclo derivative” (Kyorin Pharmaceutical Co., Ltd., priority 2004, dated 2009).

Tests used:
[1] = target: T1, plasma dipeptidylpeptidase IV (Homo sapiens, UniProt P27487); test: In vitro dipeptidylpeptidase IV inhibition (H-Gly-Pro-AMC hydrolysis by plasma, fluorometry); format: biochemical; details: plasma diluted 8-fold, H-Gly-Pro-AMC.HBr substrate, room temperature, 20 minutes
T1 construct: 20 μL of plasma diluted 8-fold with saline in a well of a 96-well flat bottom plate; from tissue
Procedure: The concentration of free 7-amino-4-methyl-coumarin (AMC) generated by hydrolysis of H-Gly-Pro-AMC.HBr substrate by plasma dipeptidylpeptidase IV was determined by fluorometry.
A 20 μL of buffer (25 mmol/L hepes, 140 mmol/L sodium chloride, 1% bovine serum albumin, 80 mmol/L magnesium chloride hexahydrate, pH 7.4) containing each compound was added to 20 μL of plasma diluted 8-fold with saline in a well of a 96-well flat bottom plate. The plate was left at room temperature for 5 minutes and 10 μL of 0.1 mmol/L H-Gly-Pro-AMC.HBr solution was added to each well to initiate the reaction. […] Using a fluorescent plate reader, the free AMC concentration was determined by exciting the samples at 355 nm and measuring the fluorescence intensity at 460 nm.

[2] = target: T2, plasma dipeptidylpeptidase IV (Mus musculus, UniProt P28843); test: Inhibition of plasma dipeptidylpeptidase IV activity in mice by oral administration; format: in vivo; details: male ICR mice, 0.1 mg/mL suspension at 10 mL/kg, 30 minutes after administration
T2 construct: The blood samples were centrifuged at 6000 rpm for 2 minutes to separate plasma; from tissue; host or cells: plasma of male ICR mice (Charles River Laboratories Japan)
Procedure: Each compound was suspended in 0.3% sodium carboxymethylcellulose to a concentration of 0.1 mg/mL. The preparation was orally administered to 8 weeks old male ICR mice (Charles River Laboratories Japan) at a dose of 10 mL/kg. Using an EDTA 2K-treated capillary tube, blood samples were collected from the tail vein before administration and 30 minutes after administration. The blood samples were centrifuged at 6000 rpm for 2 minutes to separate plasma. […] The inhibition was determined from the decrease in the enzymatic activity from the initial activity (% inhibition={(activity before administration−activity after administration)/(activity before administration)}×100).

T1 sequence (P27487 39-766 limits assumed): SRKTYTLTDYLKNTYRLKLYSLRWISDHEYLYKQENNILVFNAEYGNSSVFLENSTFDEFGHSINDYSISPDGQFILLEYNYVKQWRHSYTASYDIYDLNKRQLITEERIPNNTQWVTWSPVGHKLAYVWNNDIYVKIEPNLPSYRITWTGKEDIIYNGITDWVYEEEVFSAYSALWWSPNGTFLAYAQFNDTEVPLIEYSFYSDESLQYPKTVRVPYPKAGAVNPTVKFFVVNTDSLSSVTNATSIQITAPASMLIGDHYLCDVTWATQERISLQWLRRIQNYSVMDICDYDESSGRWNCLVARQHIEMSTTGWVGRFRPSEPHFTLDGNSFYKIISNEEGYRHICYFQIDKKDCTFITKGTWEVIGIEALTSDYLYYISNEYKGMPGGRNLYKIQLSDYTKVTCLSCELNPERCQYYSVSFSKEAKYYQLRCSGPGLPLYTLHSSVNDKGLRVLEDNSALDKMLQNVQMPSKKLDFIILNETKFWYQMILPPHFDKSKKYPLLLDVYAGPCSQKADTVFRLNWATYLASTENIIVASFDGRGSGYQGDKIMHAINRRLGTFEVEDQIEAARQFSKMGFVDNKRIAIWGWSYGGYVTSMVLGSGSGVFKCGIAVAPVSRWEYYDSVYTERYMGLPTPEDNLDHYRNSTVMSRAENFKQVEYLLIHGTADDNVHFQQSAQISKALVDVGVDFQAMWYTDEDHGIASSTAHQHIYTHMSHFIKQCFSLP
T2 sequence (P28843 37-760 limits assumed): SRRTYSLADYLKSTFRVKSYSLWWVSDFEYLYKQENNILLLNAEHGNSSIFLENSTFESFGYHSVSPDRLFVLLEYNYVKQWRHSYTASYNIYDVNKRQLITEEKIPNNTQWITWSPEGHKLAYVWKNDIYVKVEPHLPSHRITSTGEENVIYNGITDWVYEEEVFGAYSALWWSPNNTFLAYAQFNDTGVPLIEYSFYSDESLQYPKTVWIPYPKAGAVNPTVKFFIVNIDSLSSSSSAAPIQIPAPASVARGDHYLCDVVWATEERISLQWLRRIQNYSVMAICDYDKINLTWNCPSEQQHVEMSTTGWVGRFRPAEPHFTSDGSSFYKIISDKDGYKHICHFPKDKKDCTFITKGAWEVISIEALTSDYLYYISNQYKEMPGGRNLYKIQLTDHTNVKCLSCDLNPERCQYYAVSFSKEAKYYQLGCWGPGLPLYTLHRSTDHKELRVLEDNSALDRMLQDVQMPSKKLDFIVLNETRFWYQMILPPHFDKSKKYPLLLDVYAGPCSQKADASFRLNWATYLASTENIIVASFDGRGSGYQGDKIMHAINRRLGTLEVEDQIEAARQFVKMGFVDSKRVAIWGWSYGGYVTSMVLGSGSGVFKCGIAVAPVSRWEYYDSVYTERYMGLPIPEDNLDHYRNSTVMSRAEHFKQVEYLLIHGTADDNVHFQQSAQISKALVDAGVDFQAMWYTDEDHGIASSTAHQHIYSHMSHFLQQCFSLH

Row | IC50 [1] [nM] | inhibition at 1 mg/kg [2] [%] | SMILES
1 | 1.1 |  | N#C[C@@H]1C[C@H](F)CN1C(=O)CNC12CCC(CO)(CC1)CC2 [Example 5, (2S,4S)-1-[[N-(4-hydroxymethylbicyclo[2,2,2]oct-1-yl)amino]acetyl]-4-fluoropyrrolidine-2-carbonitrile]
2 | 3.1 |  | N#C[C@@H]1C[C@H](F)CN1C(=O)CNC12CCC(C(=O)O)(CC1)CC2 [Example 1, (2S,4S)-1-[[N-(4-carboxybicyclo[2,2,2]oct-1-yl)amino]acetyl]-4-fluoropyrrolidine-2-carbonitrile]
3 | 0.25 | 100 | CC12CCC(NCC(=O)N3C[C@@H](F)C[C@H]3C#N)(CC1)CC2 [Example 3, (2S,4S)-1-[[N-(4-methylbicyclo[2,2,2]oct-1-yl)amino]acetyl]-4-fluoropyrrolidine-2-carbonitrile]
4 |  | 91 | N#C[C@@H]1C[C@H](F)CN1C(=O)CNC12CCC(F)(CC1)CC2 [Example 7, (2S,4S)-1-[[N-(4-fluorobicyclo[2,2,2]oct-1-yl)amino]acetyl]-4-fluoropyrrolidine-2-carbonitrile]
